Tests used:
Type in all cases: biochemical
[1] = target: T1, human recombinant GST-tagged p38α (Homo sapiens, UniProt Q16539); test: Test Example 5: p38α inhibition action (ADP-Glo, SignalChem enzyme); details: enzyme 2 ng/μL, p38 Substrate 100 ng/μL, ATP 25 μM, 40 minutes
T1 construct: GST; purchased SignalChem M39-10 BG
Procedure: Evaluation of p38α Inhibition Action
(§1) Using a human recombinant GST-tagged p38α available from SignalChem (Catalog No. M39-10 BG), a substrate peptide p38 Substrate (Catalog No. P03-58), and ADP-Glo assay kit (Promega Corporation), measurement was performed on a 5-μL reaction system in a 384-well plate (GloMax plate reader) according to the document attached to the ADP-Glo assay kit. For the reaction conditions used, the enzyme concentration was 2 ng/μL, the substrate concentration was 100 ng/μL, the ATP concentration was 25 μM, and the reaction time was 40 minutes. The IC50 value was calculated using GraphPad Prism version 5.01 based on the inhibition rate where the test substance (8 to 10 concentrations, diluted 3-fold from 3000 nM) was added.

ALK5 [2] = target: T2, ALK5 (Homo sapiens, UniProt P36897); test: Test Example 3: ALK5 inhibition action (ADP-Glo, SignalChem enzyme); set-up: GST; purchased SignalChem T07-11G; details: enzyme 5 ng/μL, TGFBR1 Peptide 200 ng/μL, ATP 25 μM, 2 hours
T2 sequence (P36897 34-503): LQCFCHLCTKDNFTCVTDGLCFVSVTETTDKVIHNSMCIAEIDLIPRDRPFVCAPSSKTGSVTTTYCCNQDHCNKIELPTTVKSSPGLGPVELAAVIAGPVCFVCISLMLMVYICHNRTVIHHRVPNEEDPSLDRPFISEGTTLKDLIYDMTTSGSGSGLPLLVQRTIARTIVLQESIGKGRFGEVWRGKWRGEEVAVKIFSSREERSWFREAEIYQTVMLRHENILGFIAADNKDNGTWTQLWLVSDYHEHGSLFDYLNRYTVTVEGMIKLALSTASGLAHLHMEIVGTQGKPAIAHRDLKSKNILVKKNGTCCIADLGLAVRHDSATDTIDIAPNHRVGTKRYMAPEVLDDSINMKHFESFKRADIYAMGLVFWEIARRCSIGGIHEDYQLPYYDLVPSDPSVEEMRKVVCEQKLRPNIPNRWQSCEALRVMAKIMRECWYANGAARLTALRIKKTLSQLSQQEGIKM
Procedure: (§2) Evaluation of ALK5 Inhibition Action
Using a human recombinant GST-tagged TGFB available from SignalChem (Catalog No. T07-11G), a substrate peptide TGFBR1 Peptide (Catalog No. T36-58), and ADP-Glo assay kit (Promega Corporation), measurement was performed on a 5-μL reaction system in a 384-well plate (GloMax plate reader) according to the document attached to the ADP-Glo assay kit. For the reaction conditions used, the enzyme concentration was 5 ng/μL, the substrate concentration was 200 ng/μL, the ATP concentration was 25 μM, and the reaction time was 2 hours. The IC50 value was calculated using GraphPad Prism version 5.01 based on the inhibition rate where the test substance (8 to 10 concentrations, diluted 3-fold from 3000 nM) was added.

[3] = target: T3, human recombinant GST-tagged CK1δ (Homo sapiens, UniProt P48730); test: Test Example 4: CK1δ inhibition action (ADP-Glo, SignalChem enzyme); details: enzyme 2 ng/μL, Casein Dephosphorylated 200 ng/μL, ATP 25 μM, 40 minutes
T3 construct: GST; purchased SignalChem C65-10G
Procedure: Evaluation of CK1δ Inhibition Action
as §1, with “CK1δ” for “p38α”, “C65-10G),” for “M39-10 BG),”, “Casein Dephosphorylated” for “p38 Substrate”, “C03-54BN),” for “P03-58),”, “200” for “100”

human CK1δ = target: T4, human CK1δ (Homo sapiens, UniProt P48730); test: Test Example 1: CK1δ inhibitory activity (mobility shift, LabChip); details: for IC50: CKtide 1 μM, ATP 10 μM, Mg 5 mM, 1 hour room temperature; for Ratio (p38α/CK1δ): ratio of p38α IC50 to CK1δ IC50, Test Example 1
T4 construct: GST (N); made in house; host or cells: E. coli
T4 sequence (P48730 1-294): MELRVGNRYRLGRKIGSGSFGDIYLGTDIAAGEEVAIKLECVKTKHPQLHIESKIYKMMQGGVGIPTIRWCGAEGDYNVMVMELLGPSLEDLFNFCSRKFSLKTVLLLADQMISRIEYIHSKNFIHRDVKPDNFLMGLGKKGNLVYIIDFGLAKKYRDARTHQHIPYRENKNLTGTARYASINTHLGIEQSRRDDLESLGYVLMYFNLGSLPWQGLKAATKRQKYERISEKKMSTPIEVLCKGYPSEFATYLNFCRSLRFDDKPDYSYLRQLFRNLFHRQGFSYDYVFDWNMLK
Procedure: (§3) Evaluation of CK1δ Inhibitory Activity and p38α Inhibition Action
(§4) 1. Preparation of Solution of Test Substance
(§5) A test substance was dissolved in dimethyl sulfoxide (DMSO). The solution was further diluted with DMSO to prepare a solution at a concentration 100-fold greater than the test concentration. The solution was further 25-fold diluted with an assay buffer to prepare a solution of the test substance. The positive control substance was also treated as above to prepare a solution of the positive control substance.
(§6) 2. Preparation of Kinase Protein
CK1δ: Used was the human CK1δ prepared by fusing GST (61 KDa) with the N-terminal of the human CK1δ enzyme activity domain (1-294 amino acid sequence site in accession number NP_001884.2), followed by expression in E. coli and then refining by a glutathione sepharose chromatography system.
(§7) 3. Reagent and Test Method
(§8) 5 μL of a 4-fold solution of the test substance prepared with an assay buffer (20 mM HEPES, 0.01% Triton X-100, 2 mM DTT, pH: 7.5), 5 μL of a 4-fold substrate/ATP/metal solution, and 10 μL of a 2-fold kinase solution were mixed in wells of a 384-well plate made of polypropylene, and were reacted at room temperature for 1 hour. 70 μL of Termination Buffer (QuickScout Screening Assist MSA; Carna Biosciences) was added to terminate the reaction. The substrate peptide and phosphorylated peptide in the reaction solution were separated by a LabChip system (Perkin Elmer), and were quantitated. The kinase reaction was evaluated based on the product ratio (P/(P+S)) calculated from the substrate peptide peak height (S) and the phosphorylated peptide peak height (P).
(§9) The average signal from control wells containing all the reaction components was defined as 0% inhibition, and the average signal from background wells (enzyme not added) was defined as 100% inhibition. The inhibition rate was calculated from the average signal of test wells containing each test substance. The IC50 value was determined through approximation of the plot against the test substance concentration and the inhibition rate to a 4-parameter logistic curve by non-linear least squares. The compounds in Examples had good CK1δ inhibition activity. A large difference was found between the CK1δ inhibition concentration and the p38α inhibition concentration.

human p38α = target: T5, human p38α (Homo sapiens, UniProt Q16539); test: Test Example 1: p38α inhibition action (mobility shift, LabChip); details: Modified Erktide 1 μM, ATP 150 μM, Mg 5 mM, 1 hour room temperature
T5 construct: GST (N); made in house; host or cells: E. coli
Procedure: as §3, §4, §5, §6
p38α: Used was the human p38α prepared as followed: GST (66 KDa) was fused with the N-terminal of the 9-352 amino acid sequence site in accession number NP_620581.1, followed by expression in E. coli and then refining by a glutathione sepharose chromatography system, and the product was activated with His-tagged MAP2K6, and was again purified by the glutathione sepharose chromatography system.
as §7, §8, §9

ALK5 [4] = target: T2, ALK5; test: Test Example 2: ALK5 inhibition action (ADP-Glo kinase assay)
Procedure: as §2, §4
A 10% DMSO stock solution (compound concentration: 10 mM) containing 0.1 mg/mL BSA (bovine serum albumin) was prepared as a solution of the test substance.
3. Reagent, Test Method, and Reaction Conditions
A kinase assay was performed using ADP-Glo™ assay kit available from Promega Corporation according to the following assay reaction recipe: • Component 1: 1 μL diluted active protein kinase • Component 2: 1 μL of the substrate • Component 3: 1 μL kinase assay buffer • Component 4: 1 μL of the compound (10 concentrations) or 10% DMSO • Component 5: 1 μL ATP stock (25 μM final well concentration)
The assay started with incubation of the reaction mixture in a 384-well plate at room temperature for 40 minutes. After the incubation, 5 μL ADP-Glo™ reagent was added. The plate was shaken, followed by incubation at room temperature for 40 minutes. […] The plate was measured on a GloMax plate reader using ADP-Glo™ Luminescence Protocol. […] The corrected activity value was calculated by subtracting the value of the blank control from the measured value.
The relative luminescence unit (RLU) was measured at 10 compound concentrations between 0.3 nM and 10,000 nM. The inhibition rate was calculated as follows: {(Control RLU−Test RLU)/(Control RLU−Background RLU)}×100 […]

T5 sequence (Q16539 9-352): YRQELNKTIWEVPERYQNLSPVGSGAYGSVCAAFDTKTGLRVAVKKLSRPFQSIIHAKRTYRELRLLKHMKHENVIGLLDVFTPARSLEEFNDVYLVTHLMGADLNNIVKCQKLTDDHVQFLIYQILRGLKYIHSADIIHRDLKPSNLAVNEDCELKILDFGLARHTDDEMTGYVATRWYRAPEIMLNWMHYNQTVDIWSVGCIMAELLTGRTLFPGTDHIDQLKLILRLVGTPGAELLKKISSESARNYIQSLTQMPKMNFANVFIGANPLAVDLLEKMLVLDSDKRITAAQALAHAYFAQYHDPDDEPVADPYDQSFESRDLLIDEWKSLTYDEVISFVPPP
T1 sequence (Q16539 whole entry): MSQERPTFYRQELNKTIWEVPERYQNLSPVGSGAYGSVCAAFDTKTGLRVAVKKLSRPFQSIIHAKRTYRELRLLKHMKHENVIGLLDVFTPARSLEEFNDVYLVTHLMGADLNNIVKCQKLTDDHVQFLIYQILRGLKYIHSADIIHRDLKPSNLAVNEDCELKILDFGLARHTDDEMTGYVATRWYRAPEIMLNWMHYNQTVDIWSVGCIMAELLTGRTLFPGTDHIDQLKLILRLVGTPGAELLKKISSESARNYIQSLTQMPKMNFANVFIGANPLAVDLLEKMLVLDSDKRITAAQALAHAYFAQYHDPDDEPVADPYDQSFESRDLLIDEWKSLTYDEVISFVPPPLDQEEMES
T3 sequence (P48730 whole entry): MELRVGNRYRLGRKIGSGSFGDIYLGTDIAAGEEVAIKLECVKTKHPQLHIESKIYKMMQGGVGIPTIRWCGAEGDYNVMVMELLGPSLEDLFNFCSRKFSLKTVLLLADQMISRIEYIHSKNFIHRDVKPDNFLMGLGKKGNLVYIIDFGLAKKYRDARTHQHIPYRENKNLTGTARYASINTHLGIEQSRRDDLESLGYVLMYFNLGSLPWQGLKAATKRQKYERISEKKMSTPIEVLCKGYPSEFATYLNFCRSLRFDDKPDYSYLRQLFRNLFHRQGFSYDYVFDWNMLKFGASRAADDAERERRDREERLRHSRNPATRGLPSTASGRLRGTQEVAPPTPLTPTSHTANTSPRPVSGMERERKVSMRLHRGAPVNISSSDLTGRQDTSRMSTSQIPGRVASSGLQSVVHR

Row | Structure (SMILES) | IC50 [1] [nM] | IC50 (ALK5 [2]) [nM] | IC50 [3] [nM] | IC50 (human CK1δ) [nM] | Ratio (p38α/CK1δ) (human CK1δ) | IC50 (human p38α) [nM] | IC50 (ALK5 [4]; ATP 25 μM, 40 minutes, 10 concentrations 0.3-10,000 nM) [nM] | ALK5 inhibition activity (in words) (ALK5 [4]; Test Example 2, comment on Table 3)
1 | c1ccc(-c2[nH]cnc2-c2ccc3c(c2)COC3)nc1 [Example 1, 2-(4-(1,3-Dihydroisobenzofuran-5-yl)-1H-imidazol-5-yl)pyridine] | – | – | – | 21 | 190 | 4000 | 31 | good ALK5 inhibition activity
2 | Cc1nc(-c2ccc3c(c2)COC3)c(-c2ccccn2)[nH]1 [Example 2, 2-(4-(1,3-Dihydroisobenzofuran-5-yl)-2-methyl-1H-imidazol-5-yl)pyridine] | – | – | – | 68 | >150 | > 10000 | – | –
3 | Fc1ccc(-c2[nH]cnc2-c2ccc3c(c2)COC3)nc1 [Example 3, 2-(4-(1,3-Dihydroisobenzofuran-5-yl)-1H-imidazol-5-yl)-5-fluoropyridine] | – | – | – | 48 | 92 | 4400 | – | –

More lines, now with the values ahead:

Row | IC50 [1] [nM] | IC50 (ALK5 [2]) [nM] | IC50 [3] [nM] | IC50 (human CK1δ) [nM] | Ratio (p38α/CK1δ) (human CK1δ) | IC50 (human p38α) [nM] | IC50 (ALK5 [4]; ATP 25 μM, 40 minutes, 10 concentrations 0.3-10,000 nM) [nM] | ALK5 inhibition activity (in words) (ALK5 [4]; Test Example 2, comment on Table 3) | Structure (SMILES)
4 | > 3000 | 330 | 200 | – | – | – | – | – | c1ccc(-c2[nH]c(C3CC3)nc2-c2ccc3c(c2)COC3)nc1 [Example 5, 2-(2-Cyclopropyl-4-(1,3-dihydroisobenzofuran-5-yl)-1H-imidazol-5-yl)pyridine]
5 | – | 46 | – | 110 | 47 | 5200 | – | – | Cc1cccc(-c2[nH]cnc2-c2ccc3c(c2)COC3)n1 [Example 4, 2-(4-(1,3-Dihydroisobenzofuran-5-yl)-1H-imidazol-5-yl)-6-methylpyridine]

Reference: patent US12473274B2, “Heterocyclic compound as inhibitor of casein kinase 1-δ and/or activin receptor-like kinase 5” (Alchemedicine, Inc., priority 2020, dated 2025)
